What follows are compounds tested against T1, GPR6 receptor expressed in CHO-K1 cells (Homo sapiens, UniProt P46095) (assay: In vitro inhibition of cAMP (EC50), cell-based HTRF cAMP assay). Details: inhibition of constitutive cAMP activity of GPR6 in CHO-K1 cells.
T1 construct: expressed in transfected cells
Outline: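 Tetracycline-inducible CHO-K1 line, GPR6 expression induced 20 h with 2 μg/mL doxycycline. Compounds incubated 45 min at 37 °C in Ringer's buffer (pH 7.4) with 0.5% fatty acid free BSA and 300 μM IBMX. Constitutive cAMP read by Lance HTRF; EC50 from four-parameter logistic fit.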

T1 sequence (P46095 whole entry): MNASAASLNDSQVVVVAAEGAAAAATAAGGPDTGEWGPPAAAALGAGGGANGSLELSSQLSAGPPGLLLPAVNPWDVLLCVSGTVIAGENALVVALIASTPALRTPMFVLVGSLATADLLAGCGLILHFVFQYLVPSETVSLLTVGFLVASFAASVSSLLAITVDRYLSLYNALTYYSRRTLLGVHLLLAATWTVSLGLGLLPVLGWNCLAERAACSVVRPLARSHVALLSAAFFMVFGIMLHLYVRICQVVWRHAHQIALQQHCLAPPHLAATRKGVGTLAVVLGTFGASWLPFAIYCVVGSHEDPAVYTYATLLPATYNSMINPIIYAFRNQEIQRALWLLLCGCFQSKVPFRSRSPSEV

For `Cc1nonc1C(=O)Nc1cc(C#N)ccc1N1CCC(Oc2ccc(F)cc2F)CC1` [Example 119, N-(5-cyano-2-(4-(2,4-difluorophenoxy)piperidin-1-yl)phenyl)-4-methyl-1,2,5-oxadiazole-3-carboxamide], the “pEC50, in vitro inhibition of cAMP” value was under 5.7.
`COc1ccnc(C(=O)Nc2cc(C#N)ccc2N2CCC(Oc3ccc(F)cc3F)CC2)n1` [Example 138, N-(5-cyano-2-(4-(2,4-difluorophenoxy)piperidin-1-yl)phenyl)-4-methoxypyrimidine-2-carboxamide] was tested, and the “pEC50, in vitro inhibition of cAMP” value was under 4.5.
For `N#Cc1ccc(N2CCC(Oc3ccc(F)cc3F)CC2)c(NC(=O)c2cnon2)c1` [Example 139, N-(5-cyano-2-(4-(2,4-difluorophenoxy)piperidin-1-yl)phenyl)-1,2,5-oxadiazole-3-carboxamide], the “pEC50, in vitro inhibition of cAMP” value was under 4.5.
In the case of `O=C(Nc1ccc2nccnc2c1N1CCC(Oc2ccc(F)cc2F)CC1)c1ccccn1` [Example 150, N-(5-(4-(2,4-difluorophenoxy)piperidin-1-yl)quinoxalin-6-yl)picolinamide], the “pEC50, in vitro inhibition of cAMP” value is reported as under 5.7.

Point of comparison: `Cc1cnc(C(=O)Nc2cc(C#N)ccc2N2CCC(Oc3ccc(F)cc3F)CC2)cn1` [Example 123, N-(5-cyano-2-(4-(2,4-difluorophenoxy)piperidin-1-yl)phenyl)-5-methylpyrazine-2-carboxamide], “pEC50, in vitro inhibition of cAMP” value 6.5. Against it:
- CCn1ncc(C(=O)Nc2cc(C#N)cnc2N2CCC(Oc3ccc(F)cc3F)CC2)c1OC [Example 120, N-(5-cyano-2-(4-(2,4-difluorophenoxy)piperidin-1-yl)pyridin-3-yl)-1-ethyl-5-methoxy-1H-pyrazole-4-carboxamide] — higher, 7.4
- CCOc1c(C(=O)Nc2cc(C#N)cnc2N2CCC(Oc3ccc(F)cc3F)CC2)cnn1C [Example 121, N-(5-cyano-2-(4-(2,4-difluorophenoxy)piperidin-1-yl)pyridin-3-yl)-5-ethoxy-1-methyl-1H-pyrazole-4-carboxamide] — higher, 6.7
- N#Cc1ccc(N2CCC(Oc3ccc(F)cc3F)CC2)c(NC(=O)c2cocn2)c1 [Example 122, N-(5-cyano-2-(4-(2,4-difluorophenoxy)piperidin-1-yl)phenyl)oxazole-4-carboxamide] — lower, 6.1
- Cc1ccc(C(=O)Nc2cc(C#N)ccc2N2CCC(Oc3ccc(F)cc3F)CC2)nc1 [Example 124, N-(5-cyano-2-(4-(2,4-difluorophenoxy)piperidin-1-yl)phenyl)-5-methylpicolinamide] — higher, 6.9
- N#Cc1ccc(N2CCC(Oc3ccc(F)cc3F)CC2)c(NC(=O)c2cc(C3CC3)on2)c1 [Example 125, N-(5-cyano-2-(4-(2,4-difluorophenoxy)piperidin-1-yl)phenyl)-5-cyclopropylisoxazole-3-carboxamide] — higher, 6.7
- N#Cc1ccc(N2CCC(Oc3ccc(F)cc3F)CC2)c(NC(=O)c2cccnn2)c1 [Example 126, N-(5-cyano-2-(4-(2,4-difluorophenoxy)piperidin-1-yl)phenyl)pyridazine-3-carboxamide] — lower, 6.3
- Cc1ocnc1C(=O)Nc1cc(C#N)ccc1N1CCC(Oc2ccc(F)cc2F)CC1 [Example 127, N-(5-cyano-2-(4-(2,4-difluorophenoxy)piperidin-1-yl)phenyl)-5-methyloxazole-4-carboxamide] — lower, 6.1
- N#Cc1ccc(N2CCC(Oc3ccc(F)cc3F)CC2)c(NC(=O)c2ccsn2)c1 [Example 128, N-(5-cyano-2-(4-(2,4-difluorophenoxy)piperidin-1-yl)phenyl)isothiazole-3-carboxamide] — within 0.2 log units, 6.6
- COc1cncc(C(=O)Nc2cc(C#N)ccc2N2CCC(Oc3ccc(F)cc3F)CC2)n1 [Example 129, N-(5-cyano-2-(4-(2,4-difluorophenoxy)piperidin-1-yl)phenyl)-6-methoxypyrazine-2-carboxamide] — higher, 7.2
- Cc1cncc(C(=O)Nc2cc(C#N)ccc2N2CCC(Oc3ccc(F)cc3F)CC2)n1 [Example 130, N-(5-cyano-2-(4-(2,4-difluorophenoxy)piperidin-1-yl)phenyl)-6-methylpyrazine-2-carboxamide] — higher, 7.1
- Cc1onc(C(=O)Nc2cc(C#N)ccc2N2CCC(Oc3ccc(F)cc3F)CC2)c1C [Example 131, N-(5-cyano-2-(4-(2,4-difluorophenoxy)piperidin-1-yl)phenyl)-4,5-dimethylisoxazole-3-carboxamide] — higher, 7.0
- Cc1nnc(C(=O)Nc2cc(C#N)ccc2N2CCC(Oc3ccc(F)cc3F)CC2)o1 [Example 132, N-(5-cyano-2-(4-(2,4-difluorophenoxy)piperidin-1-yl)phenyl)-5-methyl-1,3,4-oxadiazole-2-carboxamide] — lower, 5.6
- COc1ccc(C(=O)Nc2cc(C#N)ccc2N2CCC(Oc3ccc(F)cc3F)CC2)nc1 [Example 133, N-(5-cyano-2-(4-(2,4-difluorophenoxy)piperidin-1-yl)phenyl)-5-methoxypicolinamide] — higher, 7.1
- N#Cc1ccc(N2CCC(Oc3ccc(F)cc3F)CC2)c(NC(=O)c2cnsn2)c1 [Example 134, N-(5-cyano-2-(4-(2,4-difluorophenoxy)piperidin-1-yl)phenyl)-1,2,5-thiadiazole-3-carboxamide] — lower, 5.8
- Cc1cc(C(=O)Nc2cc(C#N)ccc2N2CCC(Oc3ccc(F)cc3F)CC2)nc(C)n1 [Example 135, N-(5-cyano-2-(4-(2,4-difluorophenoxy)piperidin-1-yl)phenyl)-2,6-dimethylpyrimidine-4-carboxamide] — higher, 6.8
- COc1ccc(C(=O)Nc2cc(C#N)ccc2N2CCC(Oc3ccc(F)cc3F)CC2)nn1 [Example 136, N-(5-cyano-2-(4-(2,4-difluorophenoxy)piperidin-1-yl)phenyl)-6-methoxypyridazine-3-carboxamide] — higher, 6.8
- Cc1nc(C(=O)Nc2cc(C#N)ccc2N2CCC(Oc3ccc(F)cc3F)CC2)ccc1F [Example 137, N-(5-cyano-2-(4-(2,4-difluorophenoxy)piperidin-1-yl)phenyl)-5-fluoro-6-methylpicolinamide] — higher, 7.1
- Cc1nccc(C(=O)Nc2cc(C#N)ccc2N2CCC(Oc3ccc(F)cc3F)CC2)n1 [Example 141, N-(5-cyano-2-(4-(2,4-difluorophenoxy)piperidin-1-yl)phenyl)-2-methylpyrimidine-4-carboxamide] — higher, 7.2
- COc1cnc(C(=O)Nc2cnc(C)cc2N2CCC(Oc3ccc(F)cc3F)CC2)cn1 [Example 142, N-(4-(4-(2,4-difluorophenoxy)piperidin-1-yl)-6-methylpyridin-3-yl)-5-methoxypyrazine-2-carboxamide] — lower, 6.2
- CCn1nc(C(=O)Nc2cc(C#N)ccc2N2CCC(Oc3ccc(F)cc3F)CC2)cc1C [Example 143, N-(5-cyano-2-(4-(2,4-difluorophenoxy)piperidin-1-yl)phenyl)-1-ethyl-5-methyl-1H-pyrazole-3-carboxamide] — higher, 6.8
- COc1nccc(C(=O)Nc2cc(C#N)ccc2N2CCC(Oc3ccc(F)cc3F)CC2)n1 [Example 144] — higher, 6.9
- Cn1cc(C(=O)Nc2cc(C#N)ccc2N2CCC(Oc3ccc(F)cc3F)CC2)nn1 [Example 145, N-(5-cyano-2-(4-(2,4-difluorophenoxy)piperidin-1-yl)phenyl)-1-methyl-1H-1,2,3-triazole-4-carboxamide] — within 0.2 log units, 6.6
- Cc1ccc(C(=O)Nc2cc(C#N)ccc2N2CCC(Oc3ccc(F)cc3F)CC2)nn1 [Example 146, N-(5-cyano-2-(4-(2,4-difluorophenoxy)piperidin-1-yl)phenyl)-6-methylpyridazine-3-carboxamide] — within 0.2 log units, 6.6
- COc1ncc(C)cc1C(=O)Nc1cc(C(=O)N(C)C)cnc1N1CCC(Oc2ccc(F)cc2F)CC1 [Example 147, 6-(4-(2,4-difluorophenoxy)piperidin-1-yl)-5-(2-methoxy-5-methylnicotinamido)-N,N-dimethylnicotinamide] — higher, 6.9
- COc1ncccc1C(=O)Nc1cc(C(=O)N(C)C)cnc1N1CCC(Oc2ccc(F)cc2F)CC1 [Example 148, 6-(4-(2,4-difluorophenoxy)piperidin-1-yl)-5-(2-methoxynicotinamido)-N,N-dimethylnicotinamide] — higher, 7.2
- Cn1cc2ccc(NC(=O)c3ccccn3)c(N3CCC(Oc4ccc(F)cc4F)CC3)c2n1 [Example 149, N-(7-(4-(2,4-difluorophenoxy)piperidin-1-yl)-2-methyl-2H-indazol-6-yl)picolinamide] — lower, 5.8
- COc1nn(C)cc1C(=O)Nc1cc(C#N)cnc1N1CCN(Cc2cc(C#N)ccc2F)CC1 [Example 151, N-(5-cyano-2-(4-(5-cyano-2-fluorobenzyl)piperazin-1-yl)pyridin-3-yl)-3-methoxy-1-methyl-1H-pyrazole-4-carboxamide] — lower, 6.3
- COc1ccc(CN2CCN(c3ncc(C#N)cc3NC(=O)c3cn(C)nc3OC)CC2)c(F)c1 [Example 152, N-(5-cyano-2-(4-(2-fluoro-4-methoxybenzyl)piperazin-1-yl)pyridin-3-yl)-3-methoxy-1-methyl-1H-pyrazole-4-carboxamide] — higher, 7.1
- COc1nn(C)cc1C(=O)Nc1cc(C#N)cnc1N1CCN(Cc2ccc(C#N)cc2)CC1 [Example 153, N-(5-cyano-2-(4-(4-cyanobenzyl)piperazin-1-yl)pyridin-3-yl)-3-methoxy-1-methyl-1H-pyrazole-4-carboxamide] — within 0.2 log units, 6.4
- COc1nn(C)cc1C(=O)Nc1cc(C#N)cnc1N1CCN(Cc2ccc(F)c(C#N)c2)CC1 [Example 154, N-(5-cyano-2-(4-(3-cyano-4-fluorobenzyl)piperazin-1-yl)pyridin-3-yl)-3-methoxy-1-methyl-1H-pyrazole-4-carbonamide] — the same, 6.5

From patent US11426397B2, “Piperidinyl- and piperazinyl-substituted heteroaromatic carboxamides as modulators of GPR6” (TAKEDA PHARMACEUTICAL COMPANY LIMITED, priority 2017, dated 2022)
